Assay results taken from US12662483B2, “Cocrystalline forms of FGFR3 inhibitors” (Eli Lilly and Company, priority 2022, dated 2026).
Values after ≈ are worked out from the molar mass of the structure shown.

Assays:
[1] = Dynamic vapor sorption (DVS); type: physicochemical; conditions: 25° C.
Protocol: Dynamic vapor sorption (DVS) analysis is obtained at 25° C. using a TA Instruments Q5000SA VTI flow moisture balance running TA Thermal Advantage, v5.2.6 and Universal Analysis 2000, v4.5a Software. The equilibrium criterion was <0.01% weight change in 5 minutes for a maximum of 60 minutes. Humidity verification calibration was performed with sodium bromide. The weight calibration was performed with manufacturer-supplied standards.
A prepared sample of the cocrystalline form of Formula I is characterized by dynamic vapor sorption as having a range of water content from about 1% at 0% RH to about 3.2% at 90% RH.

[2] = Solid state stability at 40° C./75% RH, caps off; type: physicochemical; conditions: 40° C. and 75% relative humidity
[3] = Solubility in aqueous and biorelevant media (HPLC of supernatant); conditions: for solubility at 24 h: thermodynamic from solid
Text: Samples of Isomer 2 IPMC SDD, Isomer 2 HPMC-AS-M SDD, Isomer 2 PVP-VA SDD, and the cocrystalline form of Formula I or Formula II were centrifuged.

[4] = target: T1, FGFR3 protein (Homo sapiens, UniProt P22607); assay: FGFR3 enzyme assay (KinEASE-TK HTRF); type: biochemical; conditions: at Km ATP, 0.25 nM enzyme
T1 construct: purchased Reaction Biology 1068
Protocol: Enzyme activity was monitored using the KinEASE™-TK Assay Kit (CisBio, Cat. No. 62TK0PEC) according to the manufacturer's instructions. All assays were performed at the respective KmATP for each kinase in KinEASE™ Kinase Buffer.
Titration of Isomers 1, 2, and A were performed in a half-log manner in 100% dimethyl sulfoxide (DMSO) starting at 1 uM. Prior to the initiation of the reaction by adenosine triphosphate (ATP), FGFR1 protein and Isomers 1, 2, and A were pre-incubated for 15 minutes at room temperature, and FGFR3 protein and Isomers 1, 2, and A were pre-incubated on ice for 15 minutes. Reactions proceeded for 30 min at 30° C. Plates were quenched by the addition of the Anti-TK cryptate antibody/Streptavidin-XL665 mixture.
Ratios were converted to a percent of control (POC) using a ratiometric emission factor. One hundred POC was determined using no test compound, and 0 POC was determined in the presence of 1 uM of an appropriate control inhibitor. A 4-parameter logistic curve was fit to the POC values as a function of the concentration of Isomers 1, 2, and A, and the IC50 value was the point where the best fit curve crossed 50 POC.

[5] = fasted simulated intestinal fluid

T1 sequence (P22607 23-806): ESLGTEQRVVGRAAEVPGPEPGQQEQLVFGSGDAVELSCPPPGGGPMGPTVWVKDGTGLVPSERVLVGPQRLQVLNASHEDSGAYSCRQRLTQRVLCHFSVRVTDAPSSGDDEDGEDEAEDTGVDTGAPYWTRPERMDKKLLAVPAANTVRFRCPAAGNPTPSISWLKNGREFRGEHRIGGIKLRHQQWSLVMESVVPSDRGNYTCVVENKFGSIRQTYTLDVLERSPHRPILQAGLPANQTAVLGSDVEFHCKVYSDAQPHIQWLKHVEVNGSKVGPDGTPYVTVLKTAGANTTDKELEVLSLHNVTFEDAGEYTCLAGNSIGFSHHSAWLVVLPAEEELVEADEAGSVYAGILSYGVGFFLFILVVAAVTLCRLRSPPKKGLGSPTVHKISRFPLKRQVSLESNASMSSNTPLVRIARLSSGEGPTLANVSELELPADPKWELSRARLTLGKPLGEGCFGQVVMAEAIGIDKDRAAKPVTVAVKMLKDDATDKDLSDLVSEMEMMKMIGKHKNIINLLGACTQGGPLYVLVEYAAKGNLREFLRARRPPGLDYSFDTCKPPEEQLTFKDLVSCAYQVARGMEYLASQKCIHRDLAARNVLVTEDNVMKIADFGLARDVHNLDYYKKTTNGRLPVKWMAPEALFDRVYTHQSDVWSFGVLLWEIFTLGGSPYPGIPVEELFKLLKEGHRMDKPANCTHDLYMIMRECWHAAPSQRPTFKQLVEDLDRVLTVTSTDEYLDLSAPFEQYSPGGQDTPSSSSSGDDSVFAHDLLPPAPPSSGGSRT

Q: For `Cc1c(-c2cc(O[C@H](CO)c3ccc(F)cn3)c3c(Cl)cnn3c2)nnn1C1CCN(C#N)CC1` (single isomer, unassigned; isomer 2) [cocrystalline form of Formula I, 4-[4-[3-Chloro-4-[1-(5-fluoro-2-pyridyl)-2-hydroxy-ethoxy]pyrazolo[1,5-a]pyridin-6-yl]-5-methyl-triazol-1-yl]piperidine-1-carbonitrile, Isomer 2, Hemi-Gallic Acid Cocrystalline Form, Hemihydrate], which “water content by dynamic vapor sorption” value ([1]; 0% RH) is on record?
A: Its value is “about 1%”.

Q: And the “water content by dynamic vapor sorption” value ([1]; 90% RH)?
A: The value was “about 3.2%”.

Q: What about the “stability relative to SDD formulations of Isomer 2 (IPMC, HPMC-AS-M, PVP-VA)” value [2] of the same molecule?
A: The value was “more stable”.

Q: And the “solubility relative to Isomer 2 with IPMC SDD” value [3, 5]?
A: The value was “about two to about three times more soluble”.

Q: And the “solubility relative to freebase form of Isomer 2” value [3, 5]?
A: The value was “about four to about five times more soluble”.

Q: Which solubility at 24 h ([3]; 0.01N aqueous HCl, simulated gastric fluid) does the source give for `Cc1c(-c2cc(O[C@H](CO)c3ccc(F)cn3)c3c(Cl)cnn3c2)nnn1C1CCN(C#N)CC1` [Isomer 2, 4-[4-[3-chloro-4-[1-(5-fluoro-2-pyridyl)-2-hydroxy-ethoxy]pyrazolo[1,5-a]pyridin-6-yl]-5-methyl-triazol-1-yl]piperidine-1-carbonitrile, Isomer 2] here?
A: The solubility at 24 h was 7 µg/mL (≈ 14.1 µM).

Q: And the solubility at 24 h ([3]; 0.1N aqueous HCl, simulated gastric fluid)?
A: The solubility at 24 h was 12 µg/mL (≈ 24.1 µM).

Q: And the solubility at 24 h ([3]; acetate buffer USP, pH 4.5, aqueous buffer)?
A: The solubility at 24 h was 6 µg/mL (≈ 12.1 µM).

Q: What about the solubility at 24 h ([3]; phosphate buffer USP, pH 6, aqueous buffer) of the same molecule?
A: Its solubility at 24 h is 6 µg/mL (≈ 12.1 µM).

Q: What about the solubility at 24 h ([3]; phosphate buffer USP, pH 7.5, aqueous buffer) of the same molecule?
A: The solubility at 24 h was 5 µg/mL (≈ 10.1 µM).

Q: And the solubility at 24 h ([3]; simulated gastric fluid)?
A: Its solubility at 24 h is 47 µg/mL (≈ 94.6 µM).

Q: What about the solubility at 24 h ([3]; simulated intestinal fluid (fasted), fassif) of the same molecule?
A: The solubility at 24 h was 10 µg/mL (≈ 20.1 µM).

Q: What about the solubility at 24 h ([3]; simulated intestinal fluid (fed), fessif) of the same molecule?
A: The solubility at 24 h was 38 µg/mL (≈ 76.5 µM).

Q: And the solubility at 24 h ([3]; water)?
A: The solubility at 24 h was 6 µg/mL (≈ 12.1 µM).

Q: With `Cc1c(-c2cc(O[C@H](CO)c3ccccn3)c3c(Cl)cnn3c2)nnn1C1CCN(C#N)CC1` [Isomer A, 4-[4-[3-chloro-4-[2-hydroxy-1-(2-pyridyl)ethoxy]pyrazolo[1,5-a]pyridin-6-yl]-5-methyl-triazol-1-yl]piperidine-1-carbonitrile, Isomer 1] as the molecule, how does the IC50 [4] read?
A: The IC50 was < 0.05 µM.
